# Measured values: patent publication US8318812B2, “Therapeutic agents for the treatment of lymphoid malignancies” (The Ohio State University Research Foundation, priority 2006, dated 2012)
# Legend:
# [1] = tested on: PP2A; test: PP2A activity (malachite green phosphatase assay) in lysates of CLL cells; type: cell-based, Human; settings: 10 uM FTY720
# Protocol: PP2A Activity: The protein phosphatase activity of total cellular lysate was determined by measuring the generation of free PO4 from the threonine phosphopeptide using the malachite green-phosphate complex assay as described by the manufacturer (Upstate, Charlottesville, […].). Cell lysates were prepared in a low detergent lysis buffer (1% Nonidet P-40, 10 mM HEPES, 0.5M NaCl, 10% Glycerol, 1 mM PMSF, 5 mM Benzamidine, 10 μg/ml leupeptin). The phosphatase assay was performed in a PP2A-specific reaction buffer (Upstate) using 750 μM phosphopeptide substrate. After 30-min incubation at 30° C. malachite dye was added, and free phosphate was measured by optical density at 650 nm. To avoid variability among different immunoprecipitated samples, the phosphatase activities were normalized with the amount of PP2A immunoprecipitated, as detected and quantified by western blot analysis of each treatment group.
# In order to determine if FTY720 induced activation of PP2A enzyme in CD19^+ B cells from CLL patients were treated with 10 uM FTY720 for 0, 1, 2, 3, 4 and 15 hrs and the PP2A activity in the lysates were quantified using a functional assay following immunoprecipitation of PP2A enzyme. As reported previously in other systems, FTY720 induced a consistent 2-3 fold increase in PP2A activation with the peak response observed at 4 hour post treatment (FIG. 6a). […] Similar phenomenon was also observed in Ramos B cell line. FTY720 induced activation of PP2A in Ramos cell line as early as 3 hours and this induced PP2A activity was inhibited by okadaic acid (FIG. 7a-b).
# [2] = tested on: CD19+ B cells from CLL patients; type: cell-based; settings: 0-10 uM FTY720; 15 CLL patients
# Protocol: Cells: Blood was obtained from patients with B-cell CLL with informed consent under a protocol approved by the hospital internal review board. All patients examined in this series had immunophenotypically defined CLL as outlined by the modified 96 National Cancer Institute criteria. B-CLL cells were isolated from freshly donated blood using ficoll density gradient centrifugation (Ficoll-Paque Plus, Amershan Biosciences, Piscataway, N.J.). Isolated mononuclear cells were incubated in RPMI 1640 media (Gibco/Invitrogen, Carlsbad, Calif.) supplemented with 10% heat-inactivated fetal bovine serum (FBS, Hyclone Laboratories, Logan, Utah), 2 mM L-glutamine (Invitrogen, Carlsbad, Calif.), and penicillin (100 U/mL)/streptomycin (100 μg/ml) [Sigma-Aldrich, St. Louis] at 37° C. in an atmosphere of 5% CO2. Freshly isolated B-CLL cells were used in all experiments described herein. Enriched B-lymphocyte fractions were prepared by using MACS negative selection kit by Miltenyi Biotech (Auburn, Calif.) or by “Rosette-Sep” kit from Stem Cell Technologies (Vancouver, British Columbia, Canada) according to the manufacturer's instructions. Human B-lymphocyte cell lines Raji and Ramos were obtained from ATCC (Manassas, Va.) and the MEC cells were obtained from German cell line bank (Braunschweig, Germany). The 697-neo and 697-Bcl-2 cell lines were kind gift from Dr. John Reed (Burnham Institute, La Jolla, Calif.). Cells were cultured at 37° C. in an atmosphere of 5% CO2 in RPMI 1640 media (Gibco/Invitrogen, Carlsbad, Calif.) supplemented with 10% fetal bovine serum (Gibco/Invitrogen).
# Analysis of cell viability and apoptosis: The cell viability was carried out by dual staining with Annexin V conjugated to flourescein-isothyocyanate (FITC) and Propidium iodide (PI) as described previously. Briefly, 1×10^6 cells were stained with Annexin V-FITC (BD Pharmingen) and Propidium iodide (BD Pharmingen) for 15 minutes in dark and analyzed by flow cytometry using a Beckman-Coulter EPICS XL cytometer (Beckman-Coulter, Miami, Fla.). Apoptotic cells were identified as Annexin V and/or PI positive cells. Cells excluding both FITC and PI were considered to be viable. The Annexin V^−/PI^− cells are represented as % live cells normalized to untreated controls.
# B-CLL cells are reported to be resistant to apoptosis in-vivo. To systematically analyze the effects of FTY720 on B-CLL cells, purified CD19^+ cells from B-CLL patients were incubated with increasing concentrations of FTY720 ranging from 0, 0.5, 1, 1.5, 2.5, 5 or 10 uM. The cytotoxic effects were independently determined by flow cytometry using propidium iodide (PI) and Annexin V conjugated FITC reagents. Populations excluding both PI and Annexin V-FITC staining were considered viable. […]
# [3] = tested on: PARP; test: Western blot of PARP processing in Mino cells; type: cell-based, Human; settings: Mino cells 24 hrs post treatment
# Protocol: Primary MCL cells were isolated from PBMC (with informed patient consent under a protocol approved by IRB) as described before. All the MCL patients were identified as outlined by the World Health Organization (WHO) classification. Human mantle cell lymphoma patient cell lines (Mino and Jeko) were obtained from Dr. Raymond Lai. Primary cells or MCL cell lines were incubated in RPMI 1640 media, supplemented with 10%-20% heat-inactivated fetal bovine serum, 2 mM L-glutamine and penicillin (100 U/mL)/streptomycin ([…]) at 37° C. in an atmosphere of 5% CO2. FTY720 was synthesized as previously described. Toxicity was determined by flow cytometry using Annexin-V-FITC and Propidium Iodide (PI) staining. Apoptotic cells were identified as Annexin-V+ and/or PI+ cells. Cells excluding both FITC and PI were considered viable. Western Blotting was performed as described previously using indicated antibodies. The PARP (Ab-2) and Caspase 9 antibodies were purchased from Oncogene/Calbiochem/EMD Biosciences (San Diego, Calif.). Cyclin D1, Akt, Actin, Mcl-1, p-ERK, ERK and Bcl-2 were obtained from Santa Cruz biotech (Santa Cruz, Calif.).
# Several therapeutic agents, including fludarabine, chlorambucil, 2-chloro-2-deoxyadenosine and glucocorticoids, induce toxicity in B cell malignancies through activating caspases, the cysteine proteases of CED3/ICE family. […]
# [4] = tested on: Mino cells; test: Cell cycle analysis by flow cytometry in Mino cells; type: cell-based, Human; settings: compared to vehicle control
# Protocol: Deregulated cyclin D1 expression contributes to cell cycle defects in MCL cells. […] Mino cells were treated with FTY720 for 12, 24 and 48 hrs and subjected to cell cycle analysis by flow cytometry. […] This decrease in S phase is entry is further reflected by accumulation of cells in G1 phase of the cell cycle.
structure (smiles),measurement,setting,value
"CCCCCCCCc1ccc(CCC(N)(CO)CO)cc1.Cl [FTY720, 2-Amino-2-[2-(4-octylphenyl)ethyl]propane 1,3-diol hydrochloride]",increase in PP2A activation,[1],2-3 fold
same,time of peak PP2A response,[1],4 h
same,viability of CD19+ B cells from CLL patients,[2],dose and time dependent decrease in viability
same,PARP processing,[3],PARP processing comparable to the levels seen with Fludarabine
same,reduction in cells in S-phase,[4],~48%
